How the values were obtained:
[1] = in vivo; conditions: Balb/C, mouse
Method: The hydrogel was prepared, kept in a 4° C. refrigerator overnight ensuring a complete mixing, and balanced to ambient temperature prior to the administration. The molecular weight of ICG is 775 Da, which was used here as an example of small molecule. Two animal groups with different route of subcutaneous (s.c.) or intramuscular (i.m.) injection was assessed with an injection volume of 500 μl or 50 μl, respectively. The imaging was conducted for the animals immediately after hydrogel administration (within 1 minute), and then at predetermined time points of post injection.

[2] = tested on: myeloproliferative neoplasms (MPNs); conditions: low dose range (5-7 mCi per intravenous injection, total up to 4 injections); cited from earlier work

| SMILES | half-life ([1]; im, 50 μl) | half-life ([1]; sc, 500 μl) | tolerability and efficacy in MPNs [2] |
| --- | --- | --- | --- |
| CC1(C)C(/C=C/C=C/C=C/C=C2\N(CCCCS(=O)(=O)O)c3ccc4ccccc4c3C2(C)C)=[N+](CCCCS(=O)(=O)[O-])c2ccc3ccccc3c21 [TCG, indocyanine green] | ~4 h | ~24 h |  |
| O=[32P](O)(O)O [phosphate P-32] |  |  | well-tolerated and efficacious |
